Paper PMC8305664, “Knockdown of a β-Adrenergic-Like Octopamine Receptor Affects Locomotion and Reproduction of Tribolium castaneum” (International Journal of Molecular Sciences, 2021)

These compounds were tested against T1, TcOctβ2R (β-adrenergic-like octopamine receptor) (Tribolium castaneum, UniProt N1NSX1) (assay: GloSensor cAMP assay in HEK […] cells expressing the receptor (agonist)).
T1 construct: full ORF (411 amino acids), pcDNA3.1(+), transiently expressed in HEK 293 cells
T1 sequence (N1NSX1 1-411): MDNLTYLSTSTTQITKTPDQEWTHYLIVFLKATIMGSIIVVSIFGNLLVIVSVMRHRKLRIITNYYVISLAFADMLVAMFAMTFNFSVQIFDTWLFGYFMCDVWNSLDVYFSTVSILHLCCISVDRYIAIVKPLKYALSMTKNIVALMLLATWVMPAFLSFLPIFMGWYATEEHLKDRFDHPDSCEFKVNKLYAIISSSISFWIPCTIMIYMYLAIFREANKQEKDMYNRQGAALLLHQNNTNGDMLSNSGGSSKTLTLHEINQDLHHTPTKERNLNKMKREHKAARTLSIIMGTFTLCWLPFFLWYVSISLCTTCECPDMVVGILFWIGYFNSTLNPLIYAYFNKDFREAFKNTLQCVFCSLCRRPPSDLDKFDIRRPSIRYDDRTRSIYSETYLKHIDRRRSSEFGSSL
Type: cell-based

Compound | EC50 [nM]
NCCc1ccc(O)cc1 [tyramine] | 200
NCC(O)c1ccc(O)cc1 (stereo not drawn) [octopamine] | 28
c1ccc2c(CC3=NCCN3)cccc2c1 [naphazoline] | 7.1
